The source of these data is patent US11802127B2, “3,4-dihydro-2,7-naphthyridine-1,6(2H,7H)-diones as MEK inhibitors” (Pfizer Inc., priority 2021, dated 2023).

Data set [1] relates to ERK1/2(Thr202/Tyr204) phosphorylation (MEK-dependent) in A375 cells. Briefly: Cellular Phospho-p44/42 MAPK (Erk1/2) (Thr202/Tyr204) Assay. The format is cell-based. To be noted: Homo sapiens, A-375, 1-hour incubation, pERK1/2 (Thr202/Tyr204) In-Cell Western normalized to GAPDH. The method in brief: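 A375 cells exposed 1 h to 10-point 1:3 dilutions (top 20–1 μM, 0.5% DMSO), then fixed and stained for pERK1/2 (Thr202/Tyr204) by In-Cell Western. Signal normalized to GAPDH per well; DMSO and 1 μM reference inhibitor define 0 and 100% inhibition.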

Another data set deals with T1, BCRP (hBCRP) (Homo sapiens, UniProt Q9UNQ0).
T1 construct: expressed in transfected cells; host or cells: MDCKII (canine kidney) cells, canine P-gp knockout, transfected with BCRP
T1 sequence (Q9UNQ0 1-655): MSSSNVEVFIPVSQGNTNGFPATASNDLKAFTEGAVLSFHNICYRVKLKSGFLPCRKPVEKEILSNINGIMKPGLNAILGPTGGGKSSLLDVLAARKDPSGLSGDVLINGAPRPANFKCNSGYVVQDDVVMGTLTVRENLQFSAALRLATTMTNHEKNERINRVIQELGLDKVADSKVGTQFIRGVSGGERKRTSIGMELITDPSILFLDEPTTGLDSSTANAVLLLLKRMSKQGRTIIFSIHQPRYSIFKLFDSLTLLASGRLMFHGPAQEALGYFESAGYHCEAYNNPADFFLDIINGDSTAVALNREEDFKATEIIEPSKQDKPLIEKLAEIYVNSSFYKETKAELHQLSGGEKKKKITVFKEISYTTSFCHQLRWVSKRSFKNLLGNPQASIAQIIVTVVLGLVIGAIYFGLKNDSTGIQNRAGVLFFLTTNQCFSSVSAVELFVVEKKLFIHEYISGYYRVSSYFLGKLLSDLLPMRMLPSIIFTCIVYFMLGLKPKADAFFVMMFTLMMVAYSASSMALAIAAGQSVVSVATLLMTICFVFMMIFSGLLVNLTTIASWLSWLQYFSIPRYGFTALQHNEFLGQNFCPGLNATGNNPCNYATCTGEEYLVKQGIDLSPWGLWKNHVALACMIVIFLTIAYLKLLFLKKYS
In words: Efflux ratio in BCRP transfected MDCKII canine P-gp knockout cells. The format is in vitro ADME. As to conditions: Papp(B−A)/Papp(A−B), read-out: Efflux ratio MDCKII-hBCRP knock-in,canine pg-P KO. The method in brief:
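Test article at 1 μM final (1% organic) in A→B and B→A directions across MDCKII P-gp knockout monolayers expressing BCRP, 2 h at 37° C., triplicate; lucifer yellow checked monolayer integrity. Concentrations by LC-MS/MS against labetalol internal standard; efflux ratio = Papp(B−A)/Papp(A−B).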

As usually defined, the IC50 is the concentration that gives 50% inhibition. High values mean weaker potency, low ones greater potency. In data set [1], `CSc1ccc(Nc2c3c(cc(=O)n2C)CCN(OCCO)C3=O)c(F)c1` [Example 6, 8-((2-fluoro-4-(methylthio)phenyl)amino)-2-(2-hydroxyethoxy)-7-methyl-3,4-dihydro-2,7-naphthyridine-1,6(2H,7H)-dione] yielded an IC50 of 8 nM. Moreover, the efflux ratio at 2 h, 1 μM on BCRP (hBCRP) turned out to be 5.5.

Take `Cn1c(Nc2ccc(Br)cc2F)c2c(cc1=O)CCN(OCCO)C2=O` [Example 7, 8-((4-bromo-2-fluorophenyl)amino)-2-(2-hydroxyethoxy)-7-methyl-3,4-dihydro-2,7-naphthyridine-1,6(2H,7H)-dione]: the IC50 in data set [1] was 23 nM. Also, the efflux ratio at 2 h, 1 μM at BCRP (hBCRP) came to 9.6.

`Cn1c(Nc2ccc(I)cc2F)c2c(cc1=O)CCN(OCCO)C2=O` [Example 8, 8-((2-fluoro-4-iodophenol)amino)-2-(2-hydroxyethoxy)-7-methyl-3,4-dihydro-2,7-naphthyridine-1,6(2H,7H)-dione] registered an IC50 in data set [1] of 1 nM. Further, the efflux ratio at 2 h, 1 μM on BCRP (hBCRP) came out at 3.4.

`CCc1ccc(Nc2c3c(cc(=O)n2C)CCN(OCCO)C3=O)c(F)c1` [Example 14, 8-((4-ethyl-2-fluorophenyl)amino)-2-(2-hydroxyethoxy)-7-methyl-3,4-dihydro-2,7-naphthyridine-1,6(2H,7H)-dione] gave an IC50 in data set [1] of 15 nM. Also, the efflux ratio at 2 h, 1 μM at BCRP (hBCRP) is 3.4.

`Cn1c(Nc2ccc(OC(F)F)cc2F)c2c(cc1=O)CCN(OCCO)C2=O` [Example 22, 8-((4-(difluoromethoxy)-2-fluorophenyl)amino)-2-(2-hydroxyethoxy)-7-methyl-3,4-dihydro-2,7-naphthyridine-1,6(2H,7H)-dione]: in data set [1], half-maximal inhibition (IC50) was put at 21 nM. The efflux ratio at 2 h, 1 μM at BCRP (hBCRP) came to 9.

For `Cc1c2c(c(Nc3ccc(Br)cc3F)n(C)c1=O)C(=O)N(OCCO)CC2` [Example 36, 8-((4-bromo-2-fluorophenyl)amino)-2-(2-hydroxyethoxy)-5,7-dimethyl-3,4-dihydro-2,7-naphthyridine-1,6(2H,7H)-dione], it took 30 nM to reach half-maximal inhibition in data set [1] (IC50). Besides, the efflux ratio at 2 h, 1 μM on BCRP (hBCRP) was found to be 3.5.
